Results taken from EP4755888A1 (ILAb Co., Ltd., priority 2023, dated 2025).

Target: PD-1/PD-L1 (Homo sapiens, UniProt Q9NZQ7)
Assay: TR-FRET PD-1/PD-L1 binding inhibition at the molecular level (free proteins)
Settings: Tag1-PD-L1 and Tag2-PD-1 proteins, twelve concentrations from 200 nM, 2 hours at room temperature, read-out: FRET assay (IC50)
Experimental: In order to evaluate the inhibitory activity of the compounds synthesized according to the above Preparation Examples against PD-1/PD-L1 molecules in a free protein state,a TR-FRET (Time-Resolved Fluorescence Energy Transfer) experimetn was performed as described below.
Specifically, the compounds were prepared in a 96-well plate by serial dilution starting from 200 nM with 1/2 dilutions to obtain a total of twelve concentrations, and 2 µL of each compound solution was added to a 384-well plate. Thereafter, Tag1-PD-L1 protein and Tag2-PD-1 protein were each prepared at a 1x concentration, mixed at a ratio of 1:1, and 8 µL of the mixed solution was added to each well of the 384-well plate containing the compounds. Anti-Tag1 Eu Cryptate reagent and Anti-Tag2 XL665 antibody were each prepared at a 1* concentration, mixed at a ratio of 1:1, and 10 µL of the mixed solution was added to each well of the 384-well plate containing the compounds and proteins, followed by incubation at room temperature for 2 hours. Upon completion of the reaction, fluorescence signals at wavelengths of 620 nm and 665 nm were measured using a microplate reader.

Chain of PD-1/PD-L1 (Q9NZQ7 19-238 limits assumed): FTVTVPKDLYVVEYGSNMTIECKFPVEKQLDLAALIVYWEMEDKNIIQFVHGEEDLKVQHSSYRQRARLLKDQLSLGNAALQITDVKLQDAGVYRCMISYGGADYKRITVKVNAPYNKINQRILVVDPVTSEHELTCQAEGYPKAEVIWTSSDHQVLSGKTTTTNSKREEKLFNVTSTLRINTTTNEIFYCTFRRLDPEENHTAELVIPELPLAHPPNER

Row | Compound | IC50
1 | O=C(Nc1cccc(-c2cccc(Nc3nc(C(F)F)nc4cc(CN5CC(F)C5)cnc34)c2Cl)c1Cl)c1cc2n(n1)CCC[C@@H]2N1CCC(O)CC1 [Compound 269, (S)-N-(2,2'-dichloro-3'-((2-(difluoromethyl)-7-((3-fluoroazetidin-1-yl)methyl)pyrido[3,2-d]pyrimidin-4-yl)amino)-[1,1'-biphenyl]-3-yl)-4-(4-hydroxypiperidin-1-yl)-4,5,6,7-tetrahydropyrazolo[1,5-a]pyridine-2-carboxamide] | 10 to 100 nM
2 | Cc1nc(Nc2cccc(-c3cccc(NC(=O)c4cc5n(n4)CCC[C@@H]5N4CCC(C(=O)O)CC4)c3Cl)c2Cl)c2ncccc2n1 [Compound 254, (S)-1-(2-((2,2'-dichloro-3'-((2-methylpyrido[3,2-d]pyrimidin-4-yl)amino)-[1,1'-biphenyl]-3-yl)carbamoyl)-4,5,6,7-tetrahydropyrazolo[1,5-a]pyridin-4-yl)piperidine-4-carboxylic acid] | 10 to 100 nM
3 | COc1cc(-c2cccc(-c3cccc(NC(=O)c4cc5n(n4)CCCC5O)c3C)c2C)cc(F)c1CNC[C@@H]1CCC(=O)N1 (stereo partly drawn) [Compound 112, N-(3"-fluoro-5"-methoxy-2,2'-dimethyl-4"-(((((S)-5-oxopyrrolidin-2-yl)methyl)amino)methyl)-[1,1':3',1"-terphenyl]-3-yl)-4-hydroxy-4,5,6,7-tetrahydropyrazolo[1,5-a]pyridine-2-carboxamide] | < 10 nM
4 | COCCNC1CCCn2nc(C(=O)Nc3cccc(-c4cccc(Nc5nccc6cc(CN7CC[C@@H](O)C7)cnc56)c4Cl)c3Cl)cc21 (stereo partly drawn) [Compound 234, N-(2,2'-dichloro-3'-((3-(((R)-3-hydroxypyrrolidin-1-yl)methyl)-1,7-naphthyridin-8-yl)amino)-[1,1'-biphenyl]-3-yl)-4-((2-methoxyethyl)amino)-4,5,6,7-tetrahydropyrazolo[1,5-a]pyridine-2-carboxamide] | 10 to 100 nM
5 | O=C(Nc1cccc(-c2cccc(Nc3nc(C(F)(F)F)nc4cc(CN5CC[C@@H](O)C5)cnc34)c2Cl)c1Cl)c1cc2n(n1)CCC[C@H]2N1CCC(C(=O)O)CC1 [Compound 337] | 10 to 100 nM

More lines, now with the values ahead:

Row | IC50 | Compound
6 | 10 to 100 nM | COc1cc(C(=O)Nc2cccc(-c3cccc(NC(=O)c4cc5n(n4)CCCC5N4CC[C@@H](C(=O)O)C4)c3Cl)c2Cl)cc(F)c1CN1CC[C@@H](C(=O)O)C1 (stereo partly drawn) [Compound 197, (3R)-1-(4-((3'-(4-((R)-3-carboxypyrrolidin-1-yl)-4,5,6,7-tetrahydropyrazolo[1,5-a]pyridine-2-carboxamido)-2,2'-dichloro-[1,1'-biphenyl]-3-yl)carbamoyl)-2-fluoro-6-methoxybenzyl)pyrrolidine-3-carboxylic acid]
7 | < 10 nM | COc1cc(C(=O)Nc2cccc(-c3cccc(NC(=O)c4cc5n(n4)CCCC5NCC(=O)O)c3Cl)c2Cl)cc(F)c1CNCC(=O)O (centres unmarked) [Compound 191, 2-((4-((3'-(4-((carboxymethyl)amino)-4,5,6,7-tetrahydropyrazolo[1,5-a]pyridine-2-carboxamido)-2,2'-dichloro-[1,1'-biphenyl]-3-yl)carbamoyl)-2-fluoro-6-methoxybenzyl)amino)acetic acid]
8 | < 10 nM | O=C(Nc1cccc(-c2cccc(Nc3nc(C(F)F)nc4cc(CN5CC[C@@H](O)C5)cnc34)c2Cl)c1Cl)c1cc2n(n1)CCCC2N1CC[C@@H](C(=O)O)C1 (stereo partly drawn) [Compound 142, (3R)-1-(2-((2,2'-dichloro-3'-((2-(difluoromethyl)-7-(((R)-3-hydroxypyrrolidin-1-yl)methyl)pyrido[3,2-d]pyrimidin-4-yl)amino)-[1,1'-biphenyl]-3-yl)carbamoyl)-4,5,6,7-tetrahydropyrazolo[1,5-a]pyridin-4-yl)pyrrolidine-3-carboxylic acid]
